# Data from patent US9663525B2, “Pyrazolopyrimidinyl inhibitors of ubiquitin-activating enzyme” (Millennium Pharmaceuticals, Inc., priority 2012, dated 2017).
# Molecular target: recombinant human UAE (Homo sapiens (Human), UniProt P22314)
# Assay: Ubiquitin Activating Enzyme (UAE) HTRF assay, human UAE
# Details: not given
# recombinant human UAE, sequence (P22314 whole entry): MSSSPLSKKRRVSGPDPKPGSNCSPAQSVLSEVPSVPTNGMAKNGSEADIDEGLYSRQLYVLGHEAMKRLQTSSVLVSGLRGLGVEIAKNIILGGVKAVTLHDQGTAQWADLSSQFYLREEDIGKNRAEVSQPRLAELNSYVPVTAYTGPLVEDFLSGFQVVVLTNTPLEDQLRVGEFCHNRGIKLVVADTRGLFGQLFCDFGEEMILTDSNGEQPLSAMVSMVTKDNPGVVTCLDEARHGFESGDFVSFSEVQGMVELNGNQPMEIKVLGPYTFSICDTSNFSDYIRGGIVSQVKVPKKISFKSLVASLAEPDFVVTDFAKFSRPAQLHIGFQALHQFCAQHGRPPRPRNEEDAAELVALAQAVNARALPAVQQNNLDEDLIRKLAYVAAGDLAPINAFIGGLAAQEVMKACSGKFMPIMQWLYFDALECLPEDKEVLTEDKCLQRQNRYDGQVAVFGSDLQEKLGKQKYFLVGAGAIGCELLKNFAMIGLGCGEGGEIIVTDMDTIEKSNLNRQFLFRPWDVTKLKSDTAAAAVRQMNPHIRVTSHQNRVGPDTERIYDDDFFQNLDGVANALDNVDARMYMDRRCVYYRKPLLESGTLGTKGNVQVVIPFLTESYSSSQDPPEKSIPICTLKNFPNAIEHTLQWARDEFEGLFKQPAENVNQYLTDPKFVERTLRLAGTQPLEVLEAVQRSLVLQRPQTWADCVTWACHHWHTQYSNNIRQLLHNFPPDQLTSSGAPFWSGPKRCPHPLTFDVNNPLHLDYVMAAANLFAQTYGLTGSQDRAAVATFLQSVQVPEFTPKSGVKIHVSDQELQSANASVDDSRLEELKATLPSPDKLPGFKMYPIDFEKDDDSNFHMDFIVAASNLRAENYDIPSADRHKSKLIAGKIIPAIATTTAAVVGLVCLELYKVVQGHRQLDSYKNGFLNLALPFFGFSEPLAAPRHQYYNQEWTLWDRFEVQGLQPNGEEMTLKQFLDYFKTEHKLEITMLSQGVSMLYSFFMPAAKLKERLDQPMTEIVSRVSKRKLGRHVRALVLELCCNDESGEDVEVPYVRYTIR
row,IC50,SMILES
1,100 to 1000 nM,"NS(=O)(=O)OC[C@H]1C[C@@H](Nc2cc(Cl)nc3cc(-c4cccc5ccccc45)nn23)[C@H](O)[C@@H]1O (racemic) [Compound I-009, (rac)-((1R,2R,3S,4R)-4-{[5-chloro-2-(1-naphthyl)pyrazolo[1,5-a]pyrimidin-7-yl]amino}-2,3-dihydroxycyclopentyl)methyl rel-sulfamate]"
2,< 10 nM,"CC(C)(C)c1cccc(-c2cc3nccc(N[C@@H]4C[C@H](COS(N)(=O)=O)[C@@H](O)[C@H]4O)n3n2)n1 (racemic) [Compound I-052, (rac)-((1R,2R,3S,4R)-4-(2-(6-tert-butylpyridin-2-yl)pyrazolo[1,5-a]pyrimidin-7-ylamino)-2,3-dihydroxycyclopentyl)methyl rel-sulfamate]"
3,< 10 nM,"NS(=O)(=O)OC[C@H]1C[C@@H](Nc2ccnc3cc(-c4c[nH]c5cc(Cl)ccc45)nn23)[C@H](O)[C@@H]1O (racemic) [Compound I-055, (rac)-[(1R,2R,3S,4R)-4-{[2-(6-chloro-1H-indol-3-yl)pyrazolo[1,5-a]pyrimidin-7-yl]amino}-2,3-dihydroxycyclopentyl]methyl rel-sulfamate]"
4,< 10 nM,"CCOC(C)(C)c1cccc(-c2cc3nccc(N[C@@H]4C[C@H](COS(N)(=O)=O)[C@@H](O)[C@H]4O)n3n2)c1 (racemic) [Compound I-084, (rac)-((1R,2R,3S,4R)-4-(2-(3-(2-ethoxypropan-2-yl)phenyl)pyrazolo[1,5-a]pyrimidin-7-ylamino)-2,3-dihydroxycyclopentyl)methyl rel-sulfamate]"
5,< 10 nM,"COc1cc(F)ccc1-c1cc2nccc(N[C@@H]3C[C@H](COS(N)(=O)=O)[C@@H](O)[C@H]3O)n2n1 (racemic) [Compound I-070, (rac)-((1R,2R,3S,4R)-4-(2-(4-fluoro-2-methoxyphenyl)pyrazolo[1,5-a]pyrimidin-7-ylamino)-2,3-dihydroxycyclopentyl)methyl rel-sulfamate]"
6,< 10 nM,"NS(=O)(=O)OC[C@H]1C[C@@H](Nc2ccnc3cc(-c4ccc5c(c4)C(=O)c4ccccc4-5)nn23)[C@H](O)[C@@H]1O (racemic) [Compound I-085, (rac)-((1R,2R,3S,4R)-2,3-dihydroxy-4-(2-(9-oxo-9H-fluoren-2-yl)pyrazolo[1,5-a]pyrimidin-7-ylamino)cyclopentyl)methyl rel-sulfamate]"
7,< 10 nM,"NS(=O)(=O)OC[C@H]1C[C@@H](Nc2ccnc3cc(-c4csc5ccc(Cl)cc45)nn23)[C@H](O)[C@@H]1O (racemic) [Compound I-071, (rac)-((1R,2R,3S,4R)-4-(2-(5-chlorobenzo[b]thiophen-3-yl)pyrazolo[1,5-a]pyrimidin-7-ylamino)-2,3-dihydroxycyclopentyl)methyl rel-sulfamate]"
8,< 10 nM,"NS(=O)(=O)OC[C@H]1C[C@@H](Nc2ccnc3cc(-c4cccc(Br)c4)nn23)[C@H](O)[C@@H]1O (racemic) [Compound I-028, (rac)-((1R,2R,3S,4R)-4-((2-(3-Bromophenyl)pyrazolo[1,5-a]pyrimidin-7-yl)amino)-2,3-dihydroxycyclopentyl)methyl rel-sulfamate]"
9,10 to 100 nM,"NS(=O)(=O)OC[C@H]1C[C@@H](Nc2ccnc3cc(-c4cc5ccc(Cl)cc5s4)nn23)[C@H](O)[C@@H]1O (racemic) [Compound I-088, (rac)-((1R,2R,3S,4R)-4-(2-(6-chlorobenzo[b]thiophen-2-yl)pyrazolo[1,5-a]pyrimidin-7-ylamino)-2,3-dihydroxycyclopentyl)methyl rel-sulfamate]"
10,< 10 nM,"CC(C)(C)c1cccc(-c2cc3nccc(N[C@@H]4C[C@H](COS(N)(=O)=O)[C@@H](O)[C@H]4O)n3n2)c1 (racemic) [Compound I-015, (rac)-((1R,2R,3S,4R)-4-((2-(3-(tert-Butyl)phenyl)pyrazolo[1,5-a]pyrimidin-7-yl)amino)-2,3-dihydroxycyclopentyl)methyl rel-sulfamate]"
11,< 10 nM,"COC(=O)c1ccc2c(-c3cc4nccc(N[C@@H]5C[C@H](COS(N)(=O)=O)[C@@H](O)[C@H]5O)n4n3)cccc2c1 (relative stereo) [Compound I-096, (rac)-methyl rel-5-[7-({(1R,2S,3R,4R)-2,3-dihydroxy-4-[(sulfamoyloxy)methyl]cyclopentyl}amino)pyrazolo[1,5-a]pyrimidin-2-yl]-2-naphthoate]"
12,10 to 100 nM,"CCc1ccc2sc(-c3cc4nccc(N[C@@H]5C[C@H](COS(N)(=O)=O)[C@@H](O)[C@H]5O)n4n3)cc2c1 (racemic) [Compound I-095, (rac)-((1R,2R,3S,4R)-4-(2-(5-ethylbenzo[b]thiophen-2-yl)pyrazolo[1,5-a]pyrimidin-7-ylamino)-2,3-dihydroxycyclopentyl)methyl rel-sulfamate]"

# The next lines start with the compound.
row,SMILES,IC50
1,"NS(=O)(=O)OC[C@H]1C[C@@H](Nc2ccnc3cc(-c4cccc5c4sc4ccccc45)nn23)[C@H](O)[C@@H]1O (racemic) [Compound I-056, (rac)-((1R,2R,3S,4R)-4-((2-(Dibenzo[b,d]thiophen-4-yl)pyrazolo[1,5-a]pyrimidin-7-yl)amino)-2,3-dihydroxycyclopentyl)methyl rel-sulfamate]",< 10 nM
2,"NS(=O)(=O)OC[C@H]1C[C@@H](Nc2ccnc3cc(-c4cccc(N5CCOCC5)c4)nn23)[C@H](O)[C@@H]1O (racemic) [Compound I-078, (rac)-((1R,2R,3S,4R)-2,3-dihydroxy-4-(2-(3-morpholinophenyl)pyrazolo-[1,5-a]pyrimidin-7-ylamino)cyclopentyl)methyl rel-sulfamate]",< 10 nM
3,"NS(=O)(=O)OC[C@H]1C[C@@H](Nc2ccnc3cc(-c4ccc5[nH]c6ccccc6c5c4)nn23)[C@H](O)[C@@H]1O (racemic) [Compound I-037, (rac)-[(1R,2R,3S,4R)-4-{[2-(9H-carbazol-3-yl)pyrazolo[1,5-a]pyrimidin-7-yl]amino}-2,3-dihydroxycyclopentyl]methyl rel-sulfamate]",< 10 nM
4,"Cc1cnc2cc(-c3ccccc3)nn2c1N[C@@H]1C[C@H](COS(N)(=O)=O)[C@@H](O)[C@H]1O (relative stereo) [Compound I-089, (rac)-{(1R,2R,3S,4R)-2,3-dihydroxy-4-[(6-methyl-2-phenylpyrazolo[1,5-a]pyrimidin-7-yl)amino]cyclopentyl}methyl rel-sulfamate]",100 to 1000 nM
5,"CCCOC(C)(C)c1cccc(-c2cc3nccc(N[C@@H]4C[C@H](COS(N)(=O)=O)[C@@H](O)[C@H]4O)n3n2)c1 (racemic) [Compound I-090, (rac)-((1R,2R,3S,4R)-2,3-dihydroxy-4-(2-(3-(2-propoxypropan-2-yl)phenyl)pyrazolo[1,5-a]pyrimidin-7-ylamino)cyclopentyl)methyl rel-sulfamate]",< 10 nM
6,"NS(=O)(=O)OC[C@H]1C[C@@H](Nc2ccnc3cc(-c4coc5ccc(Cl)cc45)nn23)[C@H](O)[C@@H]1O (racemic) [Compound I-092, (rac)-((1R,2R,3S,4R)-4-(2-(5-chlorobenzofuran-3-yl)pyrazolo[1,5-a]pyrimidin-7-ylamino)-2,3-dihydroxycyclopentyl)methyl rel-sulfamate]",< 10 nM
7,"NS(=O)(=O)OC[C@H]1C[C@@H](Nc2ccnc3cc(-c4cc5ccccc5o4)nn23)[C@H](O)[C@@H]1O (racemic) [Compound I-086, (rac)-((1R,2R,3S,4R)-4-(2-(benzofuran-2-yl)pyrazolo[1,5-a]pyrimidin-7-ylamino)-2,3-dihydroxycyclopentyl)methyl rel-sulfamate]",< 10 nM
8,"C[Si](C)(C)c1cccc(-c2cc3nccc(N[C@@H]4C[C@H](COS(N)(=O)=O)[C@@H](O)[C@H]4O)n3n2)c1 (racemic) [Compound I-035, (rac)-((1R,2R,3S,4R)-2,3-dihydroxy-4-(2-(3-(trimethylsilyl)phenyl)pyrazolo[1,5-a]pyrimidin-7-ylamino)cyclopentyl)methyl rel-sulfamate]",< 10 nM
9,"C#Cc1cccc(-c2cc3nccc(N[C@@H]4C[C@H](COS(N)(=O)=O)[C@@H](O)[C@H]4O)n3n2)c1 (racemic) [Compound I-083, (rac)-[(1R,2R,3S,4R)-4-{[2-(3-ethynylphenyl)pyrazolo[1,5-a]pyrimidin-7-yl]amino}-2,3-dihydroxycyclopentyl]methyl rel-sulfamate]",< 10 nM
10,"COc1ccccc1-c1cc2nccc(N[C@@H]3C[C@H](COS(N)(=O)=O)[C@@H](O)[C@H]3O)n2n1 (racemic) [Compound I-072, (rac)-((1R,2R,3S,4R)-2,3-dihydroxy-4-(2-(2-methoyphenyl)pyrazolo[1,5-a]pyrimidin-7-ylamino)cyclopentyl)methyl rel-sulfamate]",< 10 nM
11,"NS(=O)(=O)OC[C@H]1C[C@@H](Nc2ccnc3cc(-c4cccc5sccc45)nn23)[C@H](O)[C@@H]1O (racemic) [Compound I-061, (rac)-((1R,2R,3S,4R)-4-((2-(Benzo[b]thiophen-4-yl)pyrazolo[1,5-a]pyrimidin-7-yl)amino)-2,3-dihydroxycyclopentyl)methyl rel-sulfamate]",< 10 nM

# Same assay, conditions: human UAE
row,IC50,SMILES
1,< 10 nM,"COc1ccc2ccccc2c1-c1cc2nccc(N[C@@H]3C[C@H](COS(N)(=O)=O)[C@@H](O)[C@H]3O)n2n1 [Compound I-104, (s.e.)-((1R,2R,3S,4R)-2,3-dihydroxy-4-(2-(2-methoxynaphthalen-1-yl)pyrazolo[1,5-a]pyrimidin-7-ylamino)cyclopentyl)methyl sulfamate]"
2,< 10 nM,"CC(C)Oc1ccc2ccccc2c1-c1cc2nccc(N[C@@H]3C[C@H](COS(N)(=O)=O)[C@@H](O)[C@H]3O)n2n1 [Compound I-109, (s.e.)-((1R,2R,3S,4R)-2,3-dihydroxy-4-(2-(2-isopropoxynaphthalen-1-yl)pyrazolo[1,5-a]pyrimidin-7-ylamino)cyclopentyl)methyl sulfamate]"
3,< 10 nM,"NS(=O)(=O)OC[C@H]1C[C@@H](Nc2ccnc3cc(-c4cccc5cc(C(F)F)ccc45)nn23)[C@H](O)[C@@H]1O [Compound I-111, (s.e.)-((1R,2R,3S,4R)-4-(2-(6-(difluoromethyl)naphthalen-1-yl)pyrazolo[1,5-a]pyrimidin-7-ylamino)-2,3-dihydroxycyclopentyl)methyl sulfamate]"
